Measurements reported in PubChem BioAssay (NCI).
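1) Cells in 96-well plates. 2) Compound, 48 h, 5 concentrations. 3) Linear interpolation between surrounding doses. 4) Unreached endpoint = highest concentration. TGI denotes the concentration required for complete inhibition of growth.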 Where a SMILES comes first, the peptide text is derived from it. The star is where a group is joined. Cbz = O=C(OCc1ccccc1)*

Assays:
Assay in all cases: inhibition of tumour cell growth, NCI panel, 48 h
[1] = tested on: MDA-MB-231 breast
[2] = tested on: LOX IMVI melanoma
[3] = tested on: UO-31 renal
[4] = tested on: OVCAR-3 ovarian
[5] = tested on: OVCAR-5 ovarian
[6] = tested on: 786-0 renal
[7] = tested on: TK-10 renal
[8] = tested on: A549 NSCLC
[9] = tested on: HT29 colon
[10] = tested on: UACC-62 melanoma
[11] = tested on: SF-295 CNS
[12] = tested on: MOLT-4 leukemia
[13] = tested on: MALME-3M melanoma
[14] = tested on: NCI/ADR-RES ovarian
[15] = tested on: HOP-62 NSCLC
[16] = tested on: SF-539 CNS
[17] = tested on: MCF7 breast
[18] = tested on: CCRF-CEM leukemia
[19] = tested on: UACC-257 melanoma
[20] = tested on: BT-549 breast
[21] = tested on: MDA-MB-435
[22] = tested on: HL-60(TB) leukemia
[23] = tested on: OVCAR-4 ovarian
[24] = tested on: SF-268 CNS
[25] = tested on: HCC-2998 colon
[26] = tested on: MDA-N
[27] = tested on: NCI-H460 lung
[28] = tested on: SR leukemia
[29] = tested on: M14 melanoma
[30] = tested on: HS 578T breast
[31] = tested on: SK-MEL-28 melanoma
[32] = tested on: RPMI-8226 leukemia
[33] = tested on: RXF 393 renal
[34] = tested on: ACHN renal
[35] = tested on: OVCAR-8 ovarian
[36] = tested on: HCT-116 colon
[37] = tested on: A498 renal
[38] = tested on: NCI-H23 lung
[39] = tested on: KM12 colon
[40] = tested on: HOP-92 NSCLC
[41] = tested on: SK-MEL-5 melanoma
[42] = tested on: K-562 leukemia
[43] = tested on: PC-3 prostate
[44] = tested on: IGROV1 ovarian
[45] = tested on: SNB-19 CNS
[46] = tested on: U251 CNS
[47] = tested on: SN12C renal
[48] = tested on: HCT-15 colon
[49] = tested on: NCI-H226 lung
[50] = tested on: DU-145 prostate
[51] = tested on: NCI-H522 lung
[52] = tested on: SNB-75 CNS
[53] = tested on: SW-620 colon
[54] = tested on: CAKI-1 renal
[55] = tested on: T-47D breast
[56] = tested on: SK-MEL-2 melanoma
[57] = tested on: EKVX NSCLC
[58] = tested on: COLO 205 colon
[59] = tested on: SK-OV-3 ovarian

## O=C1CCCC[C@H]1C(O)CC1CC(=O)N(c2ccccc2)C(=O)C1 (stereo not given in full)
[1]
  TGI: > 100 µM
[2]
  TGI: > 100 µM
[3]
  TGI: > 100 µM
[4]
  TGI: > 100 µM
[5]
  TGI: > 100 µM
[6]
  TGI: > 100 µM
[7]
  TGI: > 100 µM
[8]
  TGI: > 100 µM
[9]
  TGI: > 100 µM
[10]
  TGI: > 100 µM
[11]
  TGI: > 100 µM
[12]
  TGI: > 100 µM
[13]
  TGI: > 100 µM
[14]
  TGI: > 100 µM
[15]
  TGI: > 100 µM
[16]
  TGI: > 100 µM
[17]
  TGI: > 100 µM
[18]
  TGI: > 100 µM
[19]
  TGI: > 100 µM
[20]
  TGI: > 100 µM
[21]
  TGI: > 100 µM
[22]
  TGI: > 100 µM
[23]
  TGI: > 100 µM
[24]
  TGI: > 100 µM
[25]
  TGI: > 100 µM
[26]
  TGI: > 100 µM
[27]
  TGI: > 100 µM
[28]
  TGI: > 100 µM
[29]
  TGI: > 100 µM
[30]
  TGI: > 100 µM
[31]
  TGI: > 100 µM
[32]
  TGI: > 100 µM
[33]
  TGI: > 100 µM
[34]
  TGI: > 100 µM
[35]
  TGI: > 100 µM
[36]
  TGI: > 100 µM
[37]
  TGI: > 100 µM
[38]
  TGI: > 100 µM
[39]
  TGI: > 100 µM
[40]
  TGI: > 100 µM
[41]
  TGI: > 100 µM
[42]
  TGI: > 100 µM
[43]
  TGI: > 100 µM
[44]
  TGI: > 100 µM
[45]
  TGI: > 100 µM
[46]
  TGI: > 100 µM
[47]
  TGI: > 100 µM
[48]
  TGI: > 100 µM
[49]
  TGI: > 100 µM
[50]
  TGI: > 100 µM
[51]
  TGI: > 100 µM
[52]
  TGI: > 100 µM
[53]
  TGI: > 100 µM
[54]
  TGI: > 100 µM

## O=P1(Oc2ccccc2)NCc2ncccc2O1 (stereo not given)
[1]
  TGI: > 100 µM
[2]
  TGI: > 100 µM
[3]
  TGI: > 100 µM
[4]
  TGI: > 100 µM
[5]
  TGI: > 100 µM
[6]
  TGI: > 100 µM
[55]
  TGI: > 100 µM
[8]
  TGI: > 100 µM
[9]
  TGI: > 100 µM
[10]
  TGI: > 100 µM
[11]
  TGI: > 100 µM
[12]
  TGI: > 100 µM
[14]
  TGI: > 100 µM
[15]
  TGI: > 100 µM
[16]
  TGI: > 100 µM
[17]
  TGI: > 100 µM
[18]
  TGI: > 100 µM
[19]
  TGI: > 100 µM
[20]
  TGI: > 100 µM
[56]
  TGI: > 100 µM
[21]
  TGI: > 100 µM
[57]
  TGI: > 100 µM
[23]
  TGI: > 100 µM
[25]
  TGI: > 100 µM
[26]
  TGI: > 100 µM
[27]
  TGI: > 100 µM
[28]
  TGI: > 100 µM
[29]
  TGI: > 100 µM
[31]
  TGI: > 100 µM
[32]
  TGI: > 100 µM
[58]
  TGI: > 100 µM
[33]
  TGI: > 100 µM
[34]
  TGI: > 100 µM
[35]
  TGI: > 100 µM
[36]
  TGI: > 100 µM
[37]
  TGI: > 100 µM
[38]
  TGI: > 100 µM
[39]
  TGI: > 100 µM
[40]
  TGI: > 100 µM
[41]
  TGI: > 100 µM
[42]
  TGI: > 100 µM
[43]
  TGI: > 100 µM
[44]
  TGI: > 100 µM
[45]
  TGI: > 100 µM
[46]
  TGI: > 100 µM
[47]
  TGI: > 100 µM
[48]
  TGI: > 100 µM
[49]
  TGI: > 100 µM
[50]
  TGI: > 100 µM
[52]
  TGI: > 100 µM
[53]
  TGI: > 100 µM
[54]
  TGI: > 100 µM

## CC(=O)C1=C(C)N(c2ccccc2)C2(O)C=CC(=O)C3=C(O)c4ccccc4C(=O)C312 (stereo not given)
[1]
  TGI: 51 µM
[2]
  TGI: 83 µM
[3]
  TGI: 33.7 µM
[4]
  TGI: 11.4 µM
[5]
  TGI: 39.3 µM
[6]
  TGI: > 100 µM
[55]
  TGI: 76.8 µM
[7]
  TGI: 46.2 µM
[8]
  TGI: > 100 µM
[9]
  TGI: > 100 µM
[10]
  TGI: 34.1 µM
[11]
  TGI: 38.5 µM
[12]
  TGI: > 100 µM
[13]
  TGI: 2.64 µM
[14]
  TGI: 37.5 µM
[15]
  TGI: 72.1 µM
[16]
  TGI: 46.7 µM
[59]
  TGI: > 100 µM
[17]
  TGI: > 100 µM
[18]
  TGI: > 100 µM
[19]
  TGI: 21 µM
[20]
  TGI: 31.8 µM
[56]
  TGI: 39.2 µM
[21]
  TGI: 5.19 µM
[57]
  TGI: 49.1 µM
[22]
  TGI: 74.1 µM
[23]
  TGI: 72.1 µM
[24]
  TGI: 57.8 µM
[25]
  TGI: 25.4 µM
[27]
  TGI: > 100 µM
[28]
  TGI: > 100 µM
[29]
  TGI: 58.8 µM
[30]
  TGI: > 100 µM
[31]
  TGI: 52.2 µM
[32]
  TGI: > 100 µM
[58]
  TGI: 36.8 µM
[33]
  TGI: 36.6 µM
[34]
  TGI: 31.2 µM
[35]
  TGI: 34.3 µM
[36]
  TGI: > 100 µM
[37]
  TGI: 39.4 µM
[38]
  TGI: 46.3 µM
[39]
  TGI: 40.3 µM
[40]
  TGI: 63.9 µM
[41]
  TGI: 24.9 µM
[42]
  TGI: > 100 µM
[43]
  TGI: 41.5 µM
[44]
  TGI: 34.3 µM
[45]
  TGI: 38.6 µM
[46]
  TGI: 40.7 µM
[47]
  TGI: 30.3 µM
[48]
  TGI: > 100 µM
[49]
  TGI: 59.2 µM
[50]
  TGI: 28.5 µM
[51]
  TGI: 36.4 µM
[52]
  TGI: > 100 µM
[53]
  TGI: > 100 µM
[54]
  TGI: 33.3 µM

## CCOC(=O)CNC(=O)C(C)NC(=O)C(NC(=O)OCc1ccccc1)C(C)C (stereo not drawn) (Cbz-Val-Ala-Gly-OEt; configuration not given here)
[3]
  TGI: > 100 µM
[4]
  TGI: > 100 µM
[5]
  TGI: > 100 µM
[6]
  TGI: > 100 µM
[7]
  TGI: > 100 µM
[8]
  TGI: > 100 µM
[9]
  TGI: > 100 µM
[10]
  TGI: > 100 µM
[11]
  TGI: > 100 µM
[12]
  TGI: > 100 µM
[13]
  TGI: > 100 µM
[14]
  TGI: > 100 µM
[15]
  TGI: > 100 µM
[16]
  TGI: > 100 µM
[59]
  TGI: > 100 µM
[17]
  TGI: > 100 µM
[19]
  TGI: > 100 µM
[20]
  TGI: > 100 µM
[56]
  TGI: > 100 µM
[21]
  TGI: > 100 µM
[57]
  TGI: > 100 µM
[24]
  TGI: > 100 µM
[25]
  TGI: > 100 µM
[26]
  TGI: > 100 µM
[27]
  TGI: > 100 µM
[28]
  TGI: > 100 µM
[29]
  TGI: > 100 µM
[30]
  TGI: > 100 µM
[31]
  TGI: > 100 µM
[32]
  TGI: > 100 µM
[58]
  TGI: > 100 µM
[33]
  TGI: > 100 µM
[34]
  TGI: > 100 µM
[35]
  TGI: > 100 µM
[36]
  TGI: > 100 µM
[38]
  TGI: > 100 µM
[39]
  TGI: > 100 µM
[40]
  TGI: > 100 µM
[41]
  TGI: > 100 µM
[42]
  TGI: > 100 µM
[43]
  TGI: > 100 µM
[44]
  TGI: > 100 µM
[45]
  TGI: > 100 µM
[46]
  TGI: > 100 µM
[47]
  TGI: > 100 µM
[48]
  TGI: > 100 µM
[50]
  TGI: > 100 µM
[51]
  TGI: > 100 µM
[52]
  TGI: > 100 µM
[53]
  TGI: > 100 µM
[54]
  TGI: > 100 µM
